The compounds below were run against T1, hAR (Homo sapiens, UniProt P10275) (assay: Competitive binding analysis on baculovirus/Sf9 generated hAR extracts with 3H-DHT tracer). Settings: AR Binding IC50, hAR extract, 1 nM 3H-DHT, one hour at 4° C.; mean of multiple tests.
T1 construct: made in house; host or cells: baculovirus/Sf9 insect cells
T1 sequence (P10275 1-920): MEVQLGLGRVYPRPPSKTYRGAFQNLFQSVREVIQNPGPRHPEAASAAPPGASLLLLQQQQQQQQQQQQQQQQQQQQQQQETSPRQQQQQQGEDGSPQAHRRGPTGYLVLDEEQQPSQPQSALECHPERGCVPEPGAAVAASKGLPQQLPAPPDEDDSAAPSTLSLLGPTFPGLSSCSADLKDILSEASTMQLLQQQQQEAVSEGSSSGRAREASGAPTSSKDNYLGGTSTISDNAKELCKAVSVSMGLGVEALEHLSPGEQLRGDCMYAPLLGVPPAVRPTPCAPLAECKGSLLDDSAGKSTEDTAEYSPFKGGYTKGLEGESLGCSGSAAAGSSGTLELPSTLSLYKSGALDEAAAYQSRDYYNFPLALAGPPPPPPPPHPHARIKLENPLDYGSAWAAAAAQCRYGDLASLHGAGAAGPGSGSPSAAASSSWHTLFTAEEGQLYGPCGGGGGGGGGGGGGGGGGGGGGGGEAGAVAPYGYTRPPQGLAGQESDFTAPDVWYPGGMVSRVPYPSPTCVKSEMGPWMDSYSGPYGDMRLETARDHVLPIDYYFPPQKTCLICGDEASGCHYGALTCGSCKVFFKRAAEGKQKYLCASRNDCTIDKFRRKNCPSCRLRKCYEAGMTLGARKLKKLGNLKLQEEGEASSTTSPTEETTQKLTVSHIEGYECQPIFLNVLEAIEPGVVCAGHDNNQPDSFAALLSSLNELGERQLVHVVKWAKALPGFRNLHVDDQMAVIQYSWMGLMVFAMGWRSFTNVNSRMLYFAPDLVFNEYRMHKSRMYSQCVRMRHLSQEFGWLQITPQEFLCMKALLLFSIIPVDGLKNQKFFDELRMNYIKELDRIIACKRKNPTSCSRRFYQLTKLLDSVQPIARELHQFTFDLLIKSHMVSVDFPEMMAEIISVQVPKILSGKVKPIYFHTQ
Procedure: The description below describes how the assay was carried out.
Competitive binding analysis was performed on baculovirus/Sf9 generated hAR extracts in the presence or absence of different concentrations of test agent and a fixed concentration of ^3H-dihydrotestosterone (^3H-DHT) as tracer. This binding assay method is a modification of a protocol previously described (Liao S., et. al. J. Steroid Biochem. 20:11-17 1984). Briefly, progressively decreasing concentrations of compounds are incubated in the presence of hAR extract (Chang et al. P.N.A.S. Vol. 89, pp. […], 1992), hydroxylapatite, and 1 nM ^3H-DHT for one hour at 4° C. Subsequently, the binding reactions are washed three times to completely remove excess unbound ^3H-DHT. hAR bound ^3H-DHT levels are determined in the presence of compounds (i.e. competitive binding) and compared to levels bound when no competitor is present (i.e. maximum binding). Compound binding affinity to the hAR is expressed as the concentration of compound at which one half of the maximum binding is inhibited.
Compound CO[C@H]1CCC[C@@H]1Oc1ccc(C#N)c(Cl)c1 (relative stereo) [Example 35, 2-Chloro-4-(trans-2-methoxy-cyclopentyloxy)-benzonitrile] has an IC50 of 97 nM. Compound CO[C@@H]1CCCC[C@H]1Oc1ccc(C#N)c(Cl)c1 (relative stereo) [Example 39, 2-Chloro-4-(trans-2-methoxy-cyclohexyloxy)-benzonitrile] has an IC50 of 76 nM. For CC1CCCC(Oc2ccc(C#N)c(Cl)c2)C1C (centres unmarked) [Example 20, 2-Chloro-4-(2,3-dimethyl-cyclohexyloxy)-benzonitrile], the IC50 was 227 nM. Work on CC1CCCCC1Oc1ccc(C#N)c(Cl)c1 (centres unmarked) [Example 28, 2-Chloro-4-(2-methyl-cyclohexyloxy)-benzonitrile] yielded an IC50 of 49 nM. N#Cc1ccc(OC2CCCCC2c2ccccc2)cc1Cl (centres unmarked) [Example 29, 2-Chloro-4-(2-phenyl-cyclohexyloxy)-benzonitrile] was tested, and the IC50 was 89 nM. Work on C[C@H]1CCCC[C@@H]1Oc1ccc(C#N)c(Cl)c1 [Example 30, 2-Chloro-4-(2-(S)-methyl-(S)-cyclohexyloxy)-benzonitrile] yielded an IC50 of 24 nM. With N#Cc1ccc(O[C@@H]2CCCC[C@@H]2c2ccccc2)cc1Cl [Example 56, (1R,2R)-2-Chloro-4-(2-phenyl-cyclohexyloxy)-benzonitrile] the IC50 was 366 nM. In the case of N#Cc1ccc(O[C@@H]2CCCC[C@H]2c2ccccc2)cc1Cl [Example 58, (1R,2S) 2-Chloro-4-(2-phenyl-cyclohexyloxy)-benzonitrile], the IC50 is reported as 278 nM.

Same assay, conditions: hAR extract, 1 nM 3H-DHT, one hour at 4° C.; mean of multiple tests; read-out: AR Binding IC50
Compound C[C@H]1CCC[C@@H]1Oc1ccc(C#N)c(C(F)(F)F)c1 (relative stereo) [Example 2, 4-(trans-2-Methyl-cyclopentyloxy)-2-trifluoromethyl-benzonitrile] has an IC50 of 153 nM. In the case of C=CCO[C@H]1CCC[C@H]1Oc1ccc(C#N)c(Cl)c1 (relative stereo) [Example 37, 4-(cis-2-Allyloxy-cyclopentyloxy)-2-chloro-benzonitrile], the IC50 is reported as 134 nM. C=CCO[C@H]1CCC[C@@H]1Oc1ccc(C#N)c(Cl)c1 (relative stereo) [Example 38, 4-(trans-2-Allyloxy-cyclopentyloxy)-2-chloro-benzonitrile] was tested, and the IC50 was 120 nM. Work on N#Cc1ccc(OC2CCCCCC2)cc1C(F)(F)F [Example 5, 4-cycloheptyloxy-2-trifluoromethyl-benzonitrile] yielded an IC50 of 319 nM. CC1CCCC(Oc2ccc(C#N)c(C(F)(F)F)c2)C1C (centres unmarked) [Example 6, 4-(2,3-Dimethyl-cyclohexyloxy)-2-trifluoromethyl-benzonitrile] showed an IC50 of 356 nM. For C=C(C)[C@H]1CC[C@H](C)[C@@H](Oc2ccc(C#N)c(C(F)(F)F)c2)C1 [Example 13, (1S,2S,5S)-4-(5-Isopropenyl-2-methyl-cyclohexyloxy)-2-trifluoromethyl-benzonitrile], the IC50 was 102 nM. Compound COC1CCC(Oc2ccc(C#N)c(C(F)(F)F)c2)CC1 (centres unmarked) [Example 15, 4-(4-Methoxy-cyclohexyloxy)-2-trifluoromethyl-benzonitrile] has an IC50 of 243 nM. C[C@H]1CC[C@@H](Oc2ccc(C#N)c(C(F)(F)F)c2)CC1 [Example 16] gave an IC50 of 479 nM. C[C@H]1CCC[C@@H]1Oc1ccc(C#N)c(C(F)(F)F)c1 [Example 17, (1S,2S)-4-(2-Methyl-cyclopentyloxy)-2-trifluoromethyl-benzonitrile] gave an IC50 of 252 nM. With N#Cc1ccc(OC2CCC2)cc1C(F)(F)F [Example 18, 4-Cyclobutoxy-2-trifluoromethyl-benzonitrile] the IC50 was 466 nM. Work on C[C@@H]1CCCC[C@H]1Oc1ccc(C#N)cc1Cl [Example 42, (1R,2R)-3-Chloro-4-(2-methyl-cyclohexyloxy)benzonitrile] yielded an IC50 of 343 nM. Compound CC1(C)CC(Oc2ccc(C#N)cc2Cl)CC(C)(C)C1 [Example 44, 3-Chloro-4-(3,3,5,5-tetramethyl-cyclohexyloxy)-benzonitrile] has an IC50 of 410 nM. Compound C[C@@H]1CCC[C@H](Oc2ccc(C#N)c(Cl)c2)C1 [Example 48, (1S,3R)-2-Chloro-4-(3-methyl-cyclohexyloxy)-benzonitrile] has an IC50 of 218 nM. In the case of CC1CCC(Oc2ccc(C#N)c(Cl)c2)CC1C (centres unmarked) [Example 51, 2-Chloro-4-(3,4-dimethyl-cyclohexyloxy)-benzonitrile], the IC50 is reported as 442 nM. Compound C[C@H]1CC[C@@H](Oc2ccc(C#N)c(Cl)c2)CC1 [Example 54, (1S,4S)-2-Chloro-4-(4-methyl-cyclohexyloxy)-benzonitrile] has an IC50 of 356 nM. C[C@H]1CC[C@H](Oc2ccc(C#N)cc2Cl)CC1 [Example 59, (1S,4R)-3-Chloro-4-(4-methyl-cyclohexyloxy)-benzonitrile] gave an IC50 of 341 nM. C[C@@H]1CCC[C@H](Oc2ccc(C#N)cc2Cl)C1 [Example 60, (1S,3R)3-Chloro-4-(3-methyl-cyclohexyloxy)-benzonitrile] showed an IC50 of 388 nM. With CC(C)[C@H]1CC[C@H](C)C[C@@H]1Oc1ccc(C#N)cc1Cl [Example 61, (1S,2R,5S)-3-Chloro-4-(2-isopropyl-5methyl-cyclohexyloxy)-benzonitrile] the IC50 was 257 nM. For CC1CCCC(Oc2ccc(C#N)cc2Cl)C1C (centres unmarked) [Example 63, 3-Chloro-4-(2,3-dimethyl-cyclohexyloxy)-benzonitrile], the IC50 was 374 nM. In the case of C[C@H]1CC(Oc2ccc(C#N)c(Cl)c2)C[C@H](C)C1 (stereo partly drawn) [Example 65, (3R,5R)-2-Chloro-4-(trans)-(3,5-dimethyl-cyclohexyloxy)-benzonitrile], the IC50 is reported as 437 nM. Compound C[C@@H]1CCC[C@H]1Oc1ccc(C#N)cc1Cl [Example 66, (1R,2R)-3-Chloro-4-(2-methyl-cyclopentyloxy)-benzonitrile] has an IC50 of 402 nM.

From patent US7670613B2, “Androgen modulators” (Pfizer Inc., priority 2004, dated 2010)
